In ChEMBL document CHEMBL1122107, “Structure-antitumor activity relationships of 9-anilinoacridines using pattern recognition” (1982) one finds ILSmax data, which are given here for 88 compounds.

This experiment has as its system L1210. Description: Tumor cell selectivity determined as maximal percent increase in life span (ILSmax) at LD10 dosage level in L1210 cells. Format: functional, Mus musculus.

With `COc1cc(NS(C)(=O)=O)ccc1Nc1c2ccccc2nc2cc(Cl)ccc12`, the ILSmax is listed as 99%. As for `CCCC(=O)N(c1ccc(Nc2c3ccccc3nc3cc(N)ccc23)cc1)S(C)(=O)=O`, the figure is 55%; as for `CC(=O)Nc1ccc2c(=Nc3ccc(CCC(=O)O)cc3)c3ccccc3[nH]c2c1`, 25%; as for `CS(=O)(=O)Nc1ccc(Nc2c3ccccc3nc3ccccc23)c(OCCO)c1`, 67%. As for `NCc1ccc(Nc2c3ccccc3nc3ccccc23)cc1`, the figure is 25%; as for `CCc1ccc2c(Nc3ccc(NS(C)(=O)=O)cc3OC)c3ccccc3nc2c1`, 123%; as for `COc1ccc2nc3cc(N)ccc3c(Nc3ccc(NS(C)(=O)=O)cc3)c2c1`, 25%. In turn, `NCCCCCS(=O)(=O)Nc1ccc(Nc2c3ccccc3nc3ccccc23)cc1` gave an ILSmax of 25%. The figure for `Cc1cc(NS(C)(=O)=O)ccc1Nc1c2ccccc2nc2cc([N+](=O)[O-])ccc12` is 70%; for `CCS(=O)(=O)Nc1ccc(Nc2c3ccccc3nc3c(C)cccc23)c(OC)c1` it is 76%; for `Cc1ccc2c(Nc3ccc(NS(C)(=O)=O)cc3)c3ccc(N)cc3nc2c1C` it is 110%. As for `COc1cc(NS(C)(=O)=O)ccc1Nc1c2cccc(C)c2nc2c(C)c(C)ccc12`, the figure is 120%; as for `CS(=O)(=O)Nc1ccc(Nc2c3ccccc3nc3cc(Cl)c(N)cc23)cc1`, 140%. As for `CCCCCCS(=O)(=O)Nc1ccc(Nc2c3ccccc3nc3cc([N+](=O)[O-])ccc23)c(OC)c1`, the figure is 74%; as for `COc1cc(NS(C)(=O)=O)ccc1N=c1c2ccccc2[nH]c2ccc(C(N)=O)cc12`, 25%. `CC(=O)Nc1ccc2c(Nc3ccc(N(C(=O)C(C)C)S(C)(=O)=O)cc3)c3ccccc3nc2c1` had an ILSmax of 140%. The figure for `NCCCCc1ccc(Nc2c3ccccc3nc3cc([N+](=O)[O-])ccc23)cc1` is 25%.

In turn, `CN(C)C(=O)CCS(=O)(=O)Nc1ccc(Nc2c3ccccc3nc3ccccc23)cc1` gave an ILSmax of 63%. Consider `COc1cccc2c(Nc3ccc(NS(C)(=O)=O)cc3)c3ccc(I)cc3nc12`, for which the ILSmax turned out to be 80%. The figure for `N=C(N)NCCCCS(=O)(=O)Nc1ccc(Nc2c3ccccc3nc3ccccc23)cc1` is 25%.

Compound `CC(=O)NCCS(=O)(=O)Nc1ccc(Nc2c3ccccc3nc3ccccc23)cc1` yielded an ILSmax of 105%. As for `COc1cccc2c(Nc3ccc(NS(C)(=O)=O)cc3)c3ccc(N)cc3nc12`, the figure is 100%; as for `CC(=O)N(c1ccc(Nc2c3ccc([N+](=O)[O-])cc3nc3c(C)cccc23)cc1)S(C)(=O)=O`, 150%; as for `CCCCCCS(=O)(=O)Nc1ccc(Nc2c3ccccc3nc3ccccc23)c(OC)c1`, 66%.

`CCS(=O)(=O)Nc1ccc(Nc2c3ccccc3nc3cc(C)ccc23)cc1` displayed an ILSmax of 84%. As for `CNc1ccc2c(Nc3ccc(OCCCC(=O)O)cc3)c3ccccc3nc2c1`, the figure is 25%; as for `CCCCNC(=O)c1cccc2c(Nc3ccc(NS(=O)(=O)CCC)cc3OC)c3ccccc3nc12`, 71%. As for `Nc1ccc(C(=O)Nc2ccc(N=c3c4ccccc4[nH]c4ccc(N)cc34)cc2)cc1`, the ILSmax is 76%. As for `COc1ccc(Nc2c3ccccc3nc3cc([N+](=O)[O-])ccc23)cc1`, the figure is 30%.

As for `NC(=O)N/N=C/c1ccc(Nc2c3ccccc3nc3ccccc23)cc1`, the ILSmax stood at 72%.

The compound `CCS(=O)(=O)Nc1ccc(Nc2c3ccccc3nc3cc(NC(C)=O)ccc23)cc1` yielded an ILSmax of 115%. The figure for `COc1ccc2nc3cc([N+](=O)[O-])ccc3c(Nc3ccc(NS(C)(=O)=O)cc3)c2c1` is 55%. The figure for `COc1cc(NS(C)(=O)=O)ccc1N=c1c2ccccc2[nH]c2c(CN(C)C)cccc12` is 72%; for `Cc1ccc2c(Nc3ccc(NS(C)(=O)=O)cc3)c3ccc([N+](=O)[O-])cc3nc2c1` it is 170%; for `COc1ccc2nc3cc(NC(C)=O)ccc3c(Nc3ccc(NS(C)(=O)=O)cc3)c2c1` it is 25%. As for `COc1cc(NS(C)(=O)=O)ccc1Nc1c2ccc(I)cc2nc2c(OC)cccc12`, the figure is 100%; as for `COc1ccc2nc3cc(Cl)ccc3c(Nc3ccc(NS(C)(=O)=O)cc3OC)c2c1`, 25%; as for `O=C(O)c1ccc(Nc2c3ccccc3nc3c(OCC(O)CO)cccc23)cc1` (stereo not drawn), 170%. As to `COc1cc(NS(C)(=O)=O)ccc1Nc1c2ccccc2nc2cc(C(F)(F)F)c(N)cc12`, the ILSmax is 90%. `CNS(=O)(=O)c1ccc(N=c2c3ccccc3[nH]c3cc(N)ccc23)cc1` yielded an ILSmax of 55%.

Take `NC(=O)CCCCCCCCc1ccc(Nc2c3ccccc3nc3ccccc23)cc1`: the ILSmax stood at 26%. As for `CC(Oc1ccc(Nc2c3ccccc3nc3ccccc23)cc1)C(=O)O` (stereo not drawn), the figure is 25%; as for `O=C(O)CCc1cccc(Nc2c3ccccc3nc3ccccc23)c1`, 25%; as for `CN1CCN(c2ccc(Nc3c4ccccc4nc4cc([N+](=O)[O-])ccc34)cc2)CC1`, 25%. The figure for `CS(=O)(=O)Nc1ccc(Nc2c3ccccc3nc3cc(NC(=O)/C=C/c4ccccc4)ccc23)cc1` is 25%; for `Nc1ccc2c(Nc3ccc([N+](=O)[O-])cc3)c3ccccc3nc2c1` it is 25%. With `CCS(=O)(=O)Nc1ccc(Nc2c3ccccc3nc3c(C)cccc23)cc1`, the ILSmax was 65%.

For `CCCCCCS(=O)(=O)Nc1ccc(Nc2c3ccccc3nc3cc(S(C)(=O)=O)ccc23)c(OC)c1`, the ILSmax came out at 25%. As for `O=C(O)CCc1ccc(Nc2c3ccccc3nc3ccccc23)cc1`, the figure is 162%. The figure for `COc1cc(Nc2c3ccccc3nc3c([N+](=O)[O-])cccc23)ccc1NS(C)(=O)=O` is 25%.

For the compound `COc1cc(NS(C)(=O)=O)ccc1Nc1c2ccccc2nc2c(CCC(N)=O)cccc12`, the ILSmax was 105%. As for `OC[C@@H]1O[C@H](Oc2ccc(Nc3c4ccccc4nc4ccccc34)cc2)[C@@H](O)[C@H](O)[C@H]1O`, the figure is 60%. As for `CC(=O)Nc1ccc(Nc2c3ccccc3nc3ccccc23)cc1`, the figure is 60%; as for `Cc1ccc2nc3ccccc3c(Nc3ccc(NS(C)(=O)=O)cc3)c2c1`, 25%. As for `COc1cc(NS(C)(=O)=O)ccc1Nc1c2ccccc2nc2cc(N)ccc12`, the figure is 102%; as for `COc1ccccc1Nc1c2ccccc2nc2ccccc12`, 25%; as for `COc1cc(NS(C)(=O)=O)ccc1Nc1c2ccccc2nc2c(C(=O)NCC(O)CO)cccc12` (stereo not drawn), 83%.

On to `CS(=O)(=O)Nc1ccc(Nc2c3ccccc3nc3ccccc23)c(Cl)c1`, for which the ILSmax is listed as 25%. The figure for `CCCCOc1cccc2c(Nc3ccc(NS(=O)(=O)CCC)cc3OC)c3ccccc3nc12` is 80%; for `COc1cc(NS(C)(=O)=O)ccc1Nc1c2ccc(Cl)cc2nc2c(C)cccc12` it is 75%.

`CS(=O)(=O)Nc1ccc(Nc2c3ccccc3nc3cc(O)ccc23)cc1` showed an ILSmax of 72%. As for `NCc1ccc(Nc2c3ccccc3nc3cc([N+](=O)[O-])ccc23)cc1`, the figure is 25%; as for `O=C(O)CCCCc1ccc(NC(=O)Nc2ccc(N=c3c4ccccc4[nH]c4ccccc34)cc2)cc1`, 80%; as for `COc1cc(NS(C)(=O)=O)ccc1Nc1c2ccccc2nc2c(C)c(C)ccc12`, 118%.

As for `COc1ccc2c(Nc3ccc(NS(C)(=O)=O)cc3)c3ccc(OC)cc3nc2c1`, the ILSmax turned out to be 56%. The figure for `CCC(CC)C(=O)Nc1ccc(Nc2c3ccccc3nc3ccccc23)cc1` is 90%; for `COc1cc(NS(=O)(=O)CCCCN)ccc1Nc1c2ccccc2nc2c(C(N)=O)cccc12` it is 25%. As for `O=C(O)Cc1ccccc1Nc1c2ccccc2nc2ccccc12`, the figure is 25%; as for `CCS(=O)(=O)Nc1ccc(Nc2c3cccc(C)c3nc3c(C)cccc23)c(OC)c1`, 70%; as for `CCCOc1cccc2c(Nc3ccc(NS(C)(=O)=O)cc3)c3ccccc3nc12`, 100%.

Regarding `CC(=O)Nc1ccc2c(Nc3ccc(NS(C)(=O)=O)cc3)c3ccc([N+](=O)[O-])cc3nc2c1`, the ILSmax turned out to be 141%. The figure for `CCCCOc1cccc2c(Nc3ccc(NS(C)(=O)=O)cc3OC)c3ccccc3nc12` is 80%; for `COc1cc(Nc2c3ccccc3nc3ccccc23)ccc1N` it is 25%. As for `CS(=O)(=O)Nc1ccc(Nc2c3ccccc3nc3cc(NC(=O)c4ccccc4)ccc23)cc1`, the figure is 25%; as for `C(=C/c1ccc(Nc2c3ccccc3nc3ccccc23)cc1)/c1ccccc1`, 25%; as for `O=C(O)c1ccc(/C=C/c2ccc(Nc3c4ccccc4nc4ccccc34)cc2)cc1`, 158%. With `Nc1ccc2c(=Nc3ccc(S(N)(=O)=O)cc3)c3ccc(N)cc3[nH]c2c1`, the ILSmax is reported as 60%. As for `CS(=O)(=O)Nc1ccc(Nc2c3ccccc3nc3c(C(N)=O)cccc23)cc1`, the figure is 50%. In the case of `NCCCCCCS(=O)(=O)Nc1ccc(Nc2c3ccccc3nc3ccccc23)cc1`, the ILSmax is on record as 25%. The figure for `CC(=O)NCCS(=O)(=O)Nc1ccc(Nc2c3ccc(I)cc3nc3ccc(N)cc23)cc1` is 105%; for `N=C(N)NCCCS(=O)(=O)Nc1ccc(Nc2c3ccc(N)cc3nc3ccc(N)cc23)cc1` it is 129%. As for `Cc1ccc2c(Nc3ccc(NS(C)(=O)=O)cc3)c3ccccc3nc2c1C`, the figure is 55%; as for `CCNc1ccc(Nc2c3ccccc3nc3ccccc23)cc1`, 52%; as for `Ic1ccccc1Nc1c2ccccc2nc2ccccc12`, 25%. The compound `CCCCNc1ccc(Nc2c3ccccc3nc3ccccc23)cc1` gave an ILSmax of 25%. The figure for `c1ccc(Nc2c3ccccc3nc3ccccc23)cc1` is 25%. The figure for `CS(=O)(=O)Nc1ccc(Nc2c3ccccc3nc3ccccc23)cc1Cl` is 25%; for `CS(=O)(=O)Nc1ccc(Nc2c3ccccc3nc3cc(N)ccc23)cc1` it is 134%.
